# Laboratory results: patent publication US20060148758A1, “Method for blood glucose control in a mammal by N-acylated glucosamines” (priority 2005, published 2006)
# How the values were obtained:
# Type in all cases: in vivo, rat
# [1] = Lean body mass and fat content by Dual Energy X-ray Absortiometry after 6 months daily oral feeding of control and ovariectomised rats; details: daily oral feeding 6 months (GlcNBu 200 mg/kg/day or equimolar Glc)
# Protocol: In another experiment, there were four Groups of Sprague Dawley type female rats, with eight animals in each group, of approximately 250 g in weight. Two of the said groups underwent surgical ovariectomy and will be referred as the ovariectomised Groups (OVX). […] One C group and one OVX Group were fed GlcNBu, 200 mg/kg/day orally and one C group and one OVX Group were fed an equimolar amount of Glc daily. The daily feedings continued for all of the animals for a period of 6 months. At the end of the 6 month period the animals were euthanized, blood was obtained by cardiac puncture for glucose measurements, 24 hours after the administration of the Glc or GlcNBu, and their body fat and lean body mass was estimated, using a Hologic 4500 Dual Energy X-ray Absortiometry instrument, with small animal software.
# It was previously known that ovariectomy increases the body weight and the fat content of animals undergoing this procedure. The results for the lean body mass and the fat content are shown in Table 1 and presented as the mean values±the standard deviations (SD) for each group of Animals.
# [2] = tested on: blood glucose; assay: Blood glucose after oral gavage in 24 h fasted rats (glucose oxidase kit); details: fasted 24 h, gavage of 0.736 M in 3 ml saline; for increase in blood glucose compared with saline and glucose groups: male rats, 0-150 min
# Protocol: In the experiments performed and described herein, there were four groups of Spague Dawley type male rats, weighting approximately 300 g each, consisting of four (4) animals in each group. The animals were fed freely on standard rat chow and were then fasted for 24 hours. At the end of this period, said animals were lightly anaesthetized with nitrogen oxide and halothane, the body temperature being maintained with a heat lamp, and the femoral artery was cannulated, with a heparinized catheter and syringe, so that multiple blood samples could be obtained at serial time points. The test compounds were administered by gavaging the animals, said compounds having being dissolved in 3 ml of normal saline. The concentrations of the compounds administered to three groups of animals were: 0.736 M (550 mg in 3 ml of saline) of N-butyryl-D-glucosamine (designated as GlcNBu), or 0.736 M (398 mg in 3 ml of saline) of D-glucose (designated as Glc), or a combination of 0.736 M of GlcNBu and 0.736 M Glc dissolved together in 3 ml of saline. No compound was administered to the fourth group of animals (which consisted of a control group) and animals in this group were gavaged instead with 3 ml of normal saline.
# Blood (0.4 ml) was collected at 10 min before the gavage (designated as −10 min in the accompanying FIG. 1), immedietly before the gavage (designated as 0 min) and at the following time points (timed in minutes after time 0) 5, 15, 30, 60, 90, 120 and 150, as shown in the accompanying figure. The glucose concentration in the blood was determined by a commercial glucose oxidase kit, designed for the determination of blood glucose in the blood of patients with diabetes. The determinations were done in triplicate for each time point and for each of the four animals in each of the four groups.
# With reference to FIG. 1, each point of the graph represents the mean of the blood glucose concentrations obtained from the four rats in each group of animals. […]
# [3] = Incorporation of radioactivity from radiolabelled GlcNBu into plasma glucose, glucosamine or N-acetylglucosamine (HPLC of acetonitrile-soluble plasma fraction); details: rats, oral or IP, plasma acetonitrile-soluble fractions up to 4 hour, amine column HPLC
# Protocol: In order to test whether GlcNBu, in fact, was incorporated into serum glucose, or glucosamine, radiolabelled GlcNBu was prepared from [^3H] glucosamine and administered either orally or intra-peritoneally (IP) to rats, under identical conditions shown in FIG. 1. Plasma was sampled serially and plasma proteins were precipitated with acetonitrile and the radioactivity into the acetonitrile-soluble fraction containing GlcNBu metabolites was quantified. It can be seen that the radioactive profile from the oral administration of [^3H] GlcNBu is different than the glucose concentration profiles (FIG. 1). Acetonitrile-soluble fractions illustrated in FIG. 2, including the 4 hour time point were analyzed by HPLC, using an amine column and acetonitrile/water mixtures as the mobile phase (1 mL/min flow rate), Absorbance at 195 nm and radioactivity of 2 mL fractions were monitored. Radiolabelled and non-radiolabelled standards of GlcNBu, glucose, glucosamine, N-acetylglucosamine and various disaccharides were used as standards for the column. […] It is, therefore, unlikely that a significant proportion of orally fed GlcNBu is converted to glucose, glucosamine or N-acetylglucosamine, over the time course of the study. Also, glucose or glucosamine are not known to be converted into GlcNBu by animal tissues.
# [4] = control (C, non-ovariectomised) female rats
# [5] = ovariectomised (OVX) female rats
SMILES,"Fat content (g, mean ± SD) [1, 4]","Lean body mass (g, mean ± SD) [1, 4]","Fat content (g, mean ± SD) [1, 5]","Lean body mass (g, mean ± SD) [1, 5]","blood glucose concentration rose from time 0 to ([2]; male Sprague Dawley rats, followed to 150 min, mean of 4 rats)",increase in blood glucose compared with saline and glucose groups [2],increase in blood glucose compared with saline and glucose groups ([2]; listed as N-butyryl-D-glucosamine),"incorporation of radioactivity into glucose, glucosamine or N-acetylglucosamine [3]"
"O=C[C@H](O)[C@@H](O)[C@H](O)[C@H](O)CO [Glc, D-glucose, reference compound]",77.45 ± 21.0 g,283.93 ± 21.5 g,112.94 ± 30.9 g,296.87 ± 6.2 g,~7 mmol/L,,,
"CCCC(=O)N[C@H]1C(O)O[C@H](CO)[C@@H](O)[C@@H]1O (stereo partly drawn) [GlcNBu, N-butyryl-D-glucosamine]",74.57 ± 23.2 g,264.02 ± 12.1 g,126.08 ± 38.4 g,307.52 ± 34.0 g,,higher than those gavaged with saline but lower than those rats gavaged with glucose,lower blood glucose,
CCCC(=O)N[C@H]1C(O)O[C@H](CO)[C@@H](O)[C@@H]1O (stereo partly drawn) [[^3H] GlcNBu],,,,,,,,no significant incorporation of radioactivity
